Patent US12351821B2, “Method to prepare sperm” (University of Massachusetts, priority 2016, dated 2025)

What was measured:
[1] = tested on: mouse sperm (fertilizing capacity, metaphase II-arrested eggs); assay: In vitro fertilization assay with ionophore pre-treated sperm; type: cell-based; conditions: for fertilizing capacity: A23187 treatment
Protocol: (§1) Sperm from CD-1, C57BL6 (K.O control), CatSper KO 19, SLO3 KO (56), Soluble Adenylyl Cyclase KO (20), and PMC4 KO (35) cauda epididymides were allowed to swim out in 1 mL of standard TYH for 10 minutes. Each swim out tube was split in two halves (500 μl each) and one half was incubated with 20 uM A23187 for 10 minutes. Then, the A23187 was washed by centrifugation as described above (2000 and 1500 RPMS×5 min), the remaining sperm were re-suspended in free A23187 TYH standard medium and capacitated for an addition 1 hour and 20 minutes before adding the sperm to the fertilization drop or for CASA analysis.
Metaphase II-arrested eggs were collected from 6-8 week-old super ovulated CD-1 female mice (Charles River Laboratories). Females were each injected with 5-10 IU equine chorionic gonadotropin and 5-10 IU human chorionic gonadotropin 48 h apart. The cumulus-oocyte complexes (COC's) were placed into a well with 500 μl of media (TYH standard medium) previously equilibrated in an incubator with 5% CO2 at 37° C. Fertilization wells containing 20-30 eggs were inseminated with sperm (final concentration of 2.5×10^6 cells/ml) that had been incubated for 1 h and 20 min (in a medium supporting capacitation with or without calcium ionophore treatment A23187). After 4 h of insemination, eggs were washed and put in a fresh media. The eggs were evaluated 24 h post-insemination. To assess fertilization the three following criteria were considered: 1) the formation of the male and female pronuclei, 2) the emission of the second polar body, and 3) two cells stages.

PKA = assay: Western blot with anti-phosphoPKA substrate antibodies in sperm; type: cell-based, mouse
Protocol: Cauda epididymal mouse sperm were placed in 1 ml Hepes-TYH media as stated in figure legend for each experiment. After 10 min incubation at 37° C., epididymides were removed, and the suspension adjusted with non-cap medium to a final concentration of 1-2×10^7 cells/ml. After dilution 1:4 (total 400 μl), sperm were incubated at 37° C. for 1 hour in conditions that support or not capacitation. For capacitation, media was supplemented with 15 mM NaHCO3 and 4 mg/ml BSA. For A23187 treatment, 500 uL of the sperm suspension were taken from the initial swim out and supplemented with 20 μM A23187 for 10 minutes. Then, A23187 was washed off with 2 rounds of centrifugations 1-) 2000 RPMS and the 2-) 1500 RPMS for 5 min each. Sperm were re-suspended in free A23187 media. To evaluate the behavior of A23187 when PKA is inactivated, H89 was used at a concentration of 50 uM for all incubation periods including those used for washing A23187. Sperm proteins were then extracted for western blotting.
Sperm were centrifuged, and washed in 1 ml of phosphate buffer solution (PBS), re-suspended in Laemmli sample buffer (63), and boiled for 4 min. Before Loading, 5% β-mercaptoethanol was added to the protein extracts and boiled for 3 min. Protein extracts equivalent to 1×10^6 sperm were loaded per line and subjected to SDS-PAGE an electro-transfer to PVDF membranes (Bio-Rad) at 250 mA for 60 min on ice. […]

[2] = tested on: 2 cell embryos from eggs fertilized by treated sperm; assay: Embryo culture of 2 cell embryos in KSOM to blastocyst stage; type: cell-based, mouse; conditions: for percentage of blastocyst in relation to the number of two-cell embryos: CatSper KO sperm, 3.5 days in KSOM
Protocol: (§2) Fertilized 2 cell embryos were cultured in KSOM media to blastocyst stage between 3.5 days wt and K. O between 3.8 to 4.1 days. Then they were transferred to 2.5 days post coitum (dpc) pseudo-pregnant CD-1 recipient females using the non-surgical uterine embryo transfer device (65). Pseudo-pregnant CD-1 recipient females were obtained by mating with vasectomized males one day after in vitro fertilization. Only females with a clear plug were chosen as embryo recipients; late morula and early stage blastocysts were chosen to be transferred. Routine genotyping was performed with total DNA from tail biopsy samples from weaning age pups as templates for PCR using genotyping primers for Catsper gene forward [5′-[…]-3′, Seq ID NO: 1] and reverse [S′-[…]-3′; Seq ID NO: 2] and for the reporter gene Lacz forward [5′[…]-3′; Seq ID NO: 3] and reverse [5′-[…]-3′: Seq ID NO: 4] (19).

[3] = tested on: pseudo-pregnant CD-1 recipient females; assay: Non-surgical embryo transfer to pseudo-pregnant females, pups born; type: in vivo, mouse
Protocol: as §2

mouse sperm = assay: Sperm motility and hyperactivation by CASA after transient A23187 pre-treatment; type: cell-based
Protocol: as §1
Sperm suspensions (25 μl) were loaded into one pre-warmed chamber slide (depth, 100 μm) (Leja slide, Spectrum Technologies) and placed on a microscope stage at 37° C. Sperm movements were examined using the CEROS computer-assisted semen analysis (CASA) system (Hamilton Thorne Research, Beverly, MA). The default settings include the following: frames acquired: 90; frame rate: 60 Hz; minimum cell size: 4 pixels; static head size: 0.13-2.43; static head intensity: 0.10-1.52; static head elongation: 5-100. Sperm with hyper activated motility, defined as motility with high amplitude thrashing patterns and short distance of travel, were sorted using the criteria established by (64). The data was analyzed using the CASA nova software (64). At least 20 microscopy fields corresponding to a minimum of 200 sperm were analyzed in each experiment.

[4] = H89-treated C57BL6 sperm incubated 10 min in A23187

O=S(=O)(NCCNCC=Cc1ccc(Br)cc1)c1cccc2cnccc12 [H89, N-[2-[[3-(4-bromophenyl)-2-propen-1-yl]amino]ethyl]5-isoquinolinesulfonamide]
ability to fertilize in vitro in the presence of PKA inhibitor ([1]; C57BL6 sperm, H89 50 uM): unable to fertilize in vitro
PKA substrate phosphorylation (PKA; C57BL6 sperm, H89 50 uM): do not show the prototypical increase in PKA substrate phosphorylation

CNc1ccc2oc(C[C@H]3O[C@@]4(CC[C@H]3C)O[C@H]([C@H](C)C(=O)c3ccc[nH]3)[C@H](C)C[C@H]4C)nc2c1C(=O)O [A23187]
sperm fertilization rate ([1]; C57BL6 sperm, A23187 pre-treatment): significant increase
infertile phenotype (two-cell embryos developed) ([1]; CatSper1 KO sperm, A23187 transient treatment alone): rescued the infertile phenotype
fertilization of metaphase II-arrested eggs in vitro ([1]; CatSper KO sperm, A23187-treated): competent to fertilize
fertilization rate ([1]; CatSper KO sperm, starved plus rescue treatment followed by A23187 transient treatment): ~90%
sperm fertilization rate ([1]; FerTDR/DR sperm, A23187 transient incubation): improved
fertilizing capacity of H89-treated sperm [1, 4]: sufficient to induce fertilizing capacity
fertilizing capacity ([1]; PMCA4 KO sperm): neither their hyperactivated motility nor their fertilizing capacity was rescued
fertilizing capacity ([1]; sAC KO and SLO3 KO sperm): induced fertilizing capacity in sperm from both KO models
percentage of blastocyst in relation to the number of two-cell embryos ([2]; A23187 transient treatment alone): 20%
percentage of blastocyst in relation to the number of two-cell embryos ([2]; combined starved plus rescue with A23187 transient treatment): ~90%
fertilized eggs that continued to the blastocyst stage ([2]; eggs fertilized by C57BL6 sperm after A23187 treatment, control about 50%): over 80%
outcome of blastocysts non-surgically transferred to pseudo pregnant females ([3]; C57BL6 sperm after A23187 treatment): became live pups
heterozygous pups born ([3]; CatSper KO sperm, A23187 alone, 15 blastocysts transferred): three
CatSper (+/-) mouse pups born ([3]; blastocysts from A23187-treated CatSper KO sperm, two different females): five
PKA activity in H89-treated sperm after A23187 (PKA; [4]): PKA remains inactive
percentage of hyperactive sperm (mouse sperm; C57BL6 sperm, short pulse of A23187 (20 uM, 10 min), compared with CD1 sperm): increased the percentage of hyperactive C57BL6 sperm to similar levels as those obtained using CD1 sperm
hyperactivated motility (mouse sperm; CatSper1 KO sperm, 20 μM A23187 10 min then washed): a significant number of CatSper KO sperm exhibited hyperactivated motility
sperm motility (mouse sperm; PMCA4 KO sperm, A23187 addition and removal): rendered all the sperm motionless and their motility was not recovered after ionophore removal
hyperactivated motility (mouse sperm; PMCA4 KO sperm, A23187 treatment): neither their hyperactivated motility nor their fertilizing capacity was rescued
hyperactivation (mouse sperm; sAC KO and SLO3 KO sperm, A23187 for 10 min): underwent hyperactivation
sperm motility (mouse sperm; sAC KO sperm, A23187 for 10 min): a significant fraction of sAC KO sperm became motile
